From ChEMBL document CHEMBL1128555, “Derivatives of 5-[[1-(4'-carboxybenzyl)imidazolyl]methylidene]hydantoins as orally active angiotensin II receptor antagonists” (J Med Chem, 1995) come the findings set out here.

The source made the active and inactive calls. The calls are words filed in the database; no cut-off is given here. A value given as a limit tells only on which side of the number the result lay.

Test [1] deals with Angiotensin II receptor type-1 (Oryctolagus cuniculus) (UniProt P34976). Briefly: Inhibition of angiotensin II induced contraction in rabbit aortic ring, activity is expressed as IC50.
Test [2] has as its target Angiotensin II receptor (AT-1) type-1 (Rattus norvegicus) (UniProt P29089+P25095). Put plainly: Antihypertensive activity in renal hypertensive rats (RHR) at 30 mg/Kg dose after oral administration. In kind it is functional, organism-based.
The subject of test [3] is Rattus norvegicus. Briefly: The compound was tested for antihypertensive activity in Renal Hypertensive Rats(RHR) at 10 mg/Kg dose after oral administration. It counts as functional.
Test [4] addresses T1, Angiotensin II receptor (AT-1) type-1 (Rattus norvegicus, UniProt P29089+P25095).
T1 sequence (P29089 whole entry): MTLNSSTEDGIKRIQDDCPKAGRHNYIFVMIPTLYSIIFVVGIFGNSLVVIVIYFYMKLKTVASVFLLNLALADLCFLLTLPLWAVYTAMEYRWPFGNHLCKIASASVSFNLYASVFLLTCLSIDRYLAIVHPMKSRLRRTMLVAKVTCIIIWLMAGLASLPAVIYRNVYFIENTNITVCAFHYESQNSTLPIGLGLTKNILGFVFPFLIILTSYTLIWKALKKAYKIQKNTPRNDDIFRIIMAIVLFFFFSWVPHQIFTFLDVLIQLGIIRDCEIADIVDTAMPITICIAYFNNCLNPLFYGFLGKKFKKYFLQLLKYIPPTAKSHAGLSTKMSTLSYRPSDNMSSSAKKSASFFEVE
T1 sequence (P25095 whole entry): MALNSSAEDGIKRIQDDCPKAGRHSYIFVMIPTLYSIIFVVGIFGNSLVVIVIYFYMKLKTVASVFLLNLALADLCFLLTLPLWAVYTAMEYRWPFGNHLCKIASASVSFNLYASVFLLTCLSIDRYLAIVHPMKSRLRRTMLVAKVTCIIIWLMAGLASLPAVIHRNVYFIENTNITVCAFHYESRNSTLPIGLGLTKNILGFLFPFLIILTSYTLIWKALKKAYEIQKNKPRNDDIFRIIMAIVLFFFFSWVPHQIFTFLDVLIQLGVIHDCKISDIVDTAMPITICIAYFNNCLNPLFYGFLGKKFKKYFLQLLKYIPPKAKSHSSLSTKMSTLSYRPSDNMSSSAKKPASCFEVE
Briefly: Binding affinity expressed as IC50 to the Angiotensin II receptor, type 1, from rat liver membrane.

The test system of test [5] is Rattus norvegicus. Briefly: The compound was tested for antihypertensive activity in Renal Hypertensive Rats(RHR) at following doses after oral administration. of 10 mg/kg. It counts as functional.
In test [6] the test system is Rattus norvegicus. Briefly: The compound was tested for antihypertensive activity in Renal Hypertensive Rats(RHR) at 30 mg/Kg dose after oral administration; inactive. In kind it is functional, organism-based.
Test [7] has as its system Monkey. Briefly: Blood pressure determined at 10 mg/kg in salt-deplete Normotensive Monkeys. In kind it is functional, Cercopithecidae.
The subject of test [8] is Monkey. Put plainly: Baseline blood pressure was determined at 10 mg/kg in salt-deplete Normotensive Monkeys. It counts as functional, Cercopithecidae.
The test system of test [9] is Monkey. Briefly: Minimum blood pressure was determined at 10 mg/kg in salt-deplete Normotensive Monkeys. It counts as functional, Cercopithecidae.
The subject of test [10] is Monkey. Put plainly: blood pressure determined at 10 mg/kg in salt-deplete Normotensive Monkeys. In kind it is functional, Cercopithecidae.

Sequence of Angiotensin II receptor type-1 (Oryctolagus cuniculus) (P34976 whole entry, looked up): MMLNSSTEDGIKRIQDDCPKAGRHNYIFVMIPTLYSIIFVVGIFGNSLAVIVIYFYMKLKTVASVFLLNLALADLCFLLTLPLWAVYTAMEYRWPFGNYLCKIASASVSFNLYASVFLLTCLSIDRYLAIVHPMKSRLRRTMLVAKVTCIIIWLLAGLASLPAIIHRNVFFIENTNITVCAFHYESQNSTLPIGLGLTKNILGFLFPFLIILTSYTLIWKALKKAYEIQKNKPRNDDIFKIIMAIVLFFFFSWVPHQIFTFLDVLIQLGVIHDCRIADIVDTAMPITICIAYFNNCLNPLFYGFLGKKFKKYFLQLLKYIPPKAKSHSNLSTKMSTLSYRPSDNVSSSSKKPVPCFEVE

As usually defined, the IC50 is the midpoint of a concentration-inhibition curve. On to `CCCCc1ncc(/C=C2/C(=O)N(CCCC)C(=O)N2CCCC)n1Cc1ccc(C(=O)O)cc1`, for which the IC50 in test [1] was 14 nM; in test [4], 1.3 nM. Further, the Maximum blood pressure change in [2] is -45%. Besides, the Max in test [3] is reported as -21%.

Take `CCCCc1ncc(/C=C2/C(=O)N(CCCC)C(=O)N2Cc2cc(C)cs2)n1Cc1ccc(C(=O)O)cc1`: the IC50 in test [1] turned out to be 21 nM; in test [4] it was 1.5 nM. Besides, the Maximum blood pressure change in test [2] was -16%.

Take `CCCCc1ncc(/C=C2/C(=O)NC(=O)N2CCCC)n1Cc1ccc(-c2nn[nH]n2)cc1`: the IC50 in test [1] is 40 nM; in [4] it was 7.1 nM. Further, the Maximum blood pressure change in [2] amounted to 0%.

`CCCCCCN1C(=O)/C(=C/c2cnc(CCCC)n2Cc2ccc(C(=O)OC)cc2)N(Cc2csc(C)n2)C1=O`: the figures for the IC50 in [1] and in [4] were over 100 nM and 5.3 nM, respectively. Further, the Maximum blood pressure change in test [2] is -34%.

Turning to `CCCCc1ncc(/C=C2/C(=O)N(CCCC)C(=O)N2Cc2ccsc2)n1Cc1ccc(C(=O)O)cc1`, the IC50 worked out at 10 nM in test [1] and 0.9 nM in test [4]. For the same molecule, in test [2], the Maximum blood pressure change was -42%. The Max in [5] is reported as -28%.

As to `CCCCc1ncc(/C=C2\C(=O)NC(=O)N2CCCC)n1Cc1ccc(C(=O)O)cc1`, in [1], the IC50 was 44 nM. Also, in [6], the Max entry was “inactive”.

As to `CCCCc1ncc(/C=C2/C(=O)N(CCCC)C(=O)N2Cc2cccs2)n1Cc1ccc(C(=O)O)cc1`, the IC50 in test [1] was 13 nM; in test [4], 0.7 nM. The Maximum blood pressure change in test [2] was -28%.

For `CCCCc1ncc(/C=C2/C(=O)NC(=O)N2CCCC)n1Cc1ccc(C(=O)OC)cc1`, the IC50 in test [1] turned out to be 30 nM; in test [4], 3.5 nM. Besides, the Maximum blood pressure change in test [2] is -11%.

Turning to `CCCCc1ncc(/C=C2/C(=O)NC(=O)N2CCCC)n1Cc1ccc(-c2ccccc2-c2nn[nH]n2)cc1`, the values for the IC50 in test [1] and in test [4] were 40 nM and 1.4 nM, respectively. Also, the Maximum blood pressure change in [2] stood at 0%.

As for `CCCCc1ncc(/C=C2/C(=O)N(CCCC)C(=O)N2Cc2csc(C)n2)n1Cc1ccc(C(=O)O)cc1Cl`, the Blood pressure stood at 85 mmHg in [7], 100 mmHg in test [8] and 80 mmHg in test [9].

Regarding `CCCCc1ncc(/C=C2/C(=O)N(CCCC)C(=O)N2Cc2ccccn2)n1Cc1ccc(C(=O)OC)cc1`, the figures for the IC50 in [1] and in test [4] were 490 nM and 5.8 nM, respectively. The Maximum blood pressure change in test [2] was -20%.

As for `CCCCc1ncc(/C=C2/C(=O)N(CCCC)C(=O)N2CCCC)n1Cc1ccc(C(=O)OC)cc1`, the IC50 is reported as 460 nM in [1] and 8.5 nM in test [4]. The Maximum blood pressure change in test [2] was -27%.

In the case of `CCCCc1ncc(/C=C2/C(=O)NC(=O)N2Cc2ccc(Cl)cc2)n1Cc1ccc(C(=O)O)cc1`, the IC50 was found to be 28 nM in test [1] and 3 nM in test [4]. Besides, the Maximum blood pressure change in [2] was -17%.

Turning to `CCCCc1ncc(/C=C2/C(=O)NC(=O)N2Cc2cccs2)n1Cc1ccc(C(=O)O)cc1`, the IC50 in test [1] worked out at 18 nM; in test [4], 2.3 nM. Also, the Maximum blood pressure change in [2] was -21%.

Consider `CCCCc1ncc(/C=C2/C(=O)NC(=O)N2Cc2cccs2)n1Cc1ccc(C(=O)OC)cc1`, for which the results for the IC50 in test [1] and in test [4] were 28 nM and 7.1 nM, respectively. In addition, in [2], the Maximum blood pressure change was -19%.

For the molecule `CCCCc1ncc(/C=C2/C(=O)NC(=O)N2CCCC)n1Cc1ccc(C(=O)O)cc1`, the IC50 in test [1] was 28 nM; in test [4], 2.8 nM. Moreover, the Maximum blood pressure change in test [2] was -17%.

Take `CCCCc1ncc(/C=C2/C(=O)N(CCCC)C(=O)N2Cc2csc(N)n2)n1Cc1ccc(C(=O)OC)cc1`: the results for the IC50 in test [1] and in [4] were 290 nM and 1.2 nM, respectively. The Maximum blood pressure change in test [2] was -37%. The Max in [3] is -39%.

As for `CCCCc1ncc(/C=C2/C(=O)N(CCCC)C(=O)N2Cc2ccc(Cl)cc2)n1Cc1ccc(C(=O)OC)cc1`, the IC50 in test [1] is recorded as 500 nM; in test [4], 17.6 nM. In addition, in test [2], the Maximum blood pressure change was -15%.

Take `CCCCc1ncc(/C=C2/C(=O)N(CCCC)C(=O)N2Cc2csc(C)n2)n1Cc1ccc(C(=O)OC)cc1`: the IC50 worked out at 350 nM in test [1] and 3.8 nM in test [4]. Moreover, in test [2], the Maximum blood pressure change is -40%. For the same molecule, the Max in test [3] is listed as -25%. Moreover, the Blood pressure was determined as 101 mmHg in test [8], 88 mmHg in [10] and 74 mmHg in test [9].

`CCCCc1ncc(/C=C2/C(=O)N(CCCC)C(=O)N2Cc2cccs2)n1Cc1ccc(C(=O)OC)cc1`: the results for the IC50 in test [1] and in test [4] were 370 nM and 3.4 nM, respectively. In [2], the Maximum blood pressure change was -28%.

On to `CCCCc1ncc(/C=C2/C(=O)N(CCCC)C(=O)N2Cc2csc(C)c2)n1Cc1ccc(C(=O)O)cc1`, for which the IC50 is 9.2 nM in [1] and 0.7 nM in test [4]. Further, the Maximum blood pressure change in test [2] is -23%. Further, in test [5], the Max is -28%.

On to `CCCCc1ncc(/C=C2/C(=O)N(CCCC)C(=O)N2Cc2csc(C)n2)n1Cc1ccc(C(=O)O)cc1`, for which the IC50 was determined as 2.6 nM in test [1] and 1.2 nM in test [4]. In test [2], the Maximum blood pressure change was -34%.

Regarding `CCCCc1ncc(/C=C2\C(=O)NC(=O)N2Cc2cccs2)n1Cc1ccc(C(=O)O)cc1`, in [6], the Max entry was “inactive”. Besides, the 50% inhibitory concentration (IC50) in [4] is recorded as 2.6 nM.

On to `CCCCc1ncc(/C=C2/C(=O)N(CCCC)C(=O)N2Cc2ccc(C)s2)n1Cc1ccc(C(=O)O)cc1`, for which the IC50 in [1] is recorded as 5.3 nM; in test [4] it was 0.6 nM. Besides, in test [2], the Maximum blood pressure change was -22%.

In the case of `CCCCc1ncc(/C=C2/C(=O)N(CCCC)C(=O)N2Cc2ccoc2)n1Cc1ccc(C(=O)OC)cc1`, the IC50 in [1] was over 100 nM; in test [4] it was 8.3 nM. In addition, the Maximum blood pressure change in [2] is -22%.

As for `CCCCc1ncc(/C=C2/C(=O)NC(=O)N2CCCC)n1Cc1ccc(NS(=O)(=O)C(F)(F)F)cc1`, the IC50 in test [1] was determined as 120 nM; in test [4], 3.3 nM. Moreover, the Maximum blood pressure change in test [2] is -11%.
